From patent US4898868A, “3-demethyl-4-fluoromevalonic acid derivatives, a process for the preparation thereof, pharmaceutical products based on these compounds, the use thereof, and intermediates” (Hoechst Aktiengesellschaft, priority 1987, dated 1990)

Columns and labels:
HMG-CoA reductase [1] = molecular target: T1, HMG-CoA reductase (Rattus norvegicus, UniProt P51639); experiment: inhibition of HMG-CoA reductase activity on solubilized enzyme preparations from rat liver microsomes; type: biochemical; conditions: solubilized rat liver microsomal enzyme; mean of 3 parallel samples; optically pure compounds
T1 sequence (P51639 1-887): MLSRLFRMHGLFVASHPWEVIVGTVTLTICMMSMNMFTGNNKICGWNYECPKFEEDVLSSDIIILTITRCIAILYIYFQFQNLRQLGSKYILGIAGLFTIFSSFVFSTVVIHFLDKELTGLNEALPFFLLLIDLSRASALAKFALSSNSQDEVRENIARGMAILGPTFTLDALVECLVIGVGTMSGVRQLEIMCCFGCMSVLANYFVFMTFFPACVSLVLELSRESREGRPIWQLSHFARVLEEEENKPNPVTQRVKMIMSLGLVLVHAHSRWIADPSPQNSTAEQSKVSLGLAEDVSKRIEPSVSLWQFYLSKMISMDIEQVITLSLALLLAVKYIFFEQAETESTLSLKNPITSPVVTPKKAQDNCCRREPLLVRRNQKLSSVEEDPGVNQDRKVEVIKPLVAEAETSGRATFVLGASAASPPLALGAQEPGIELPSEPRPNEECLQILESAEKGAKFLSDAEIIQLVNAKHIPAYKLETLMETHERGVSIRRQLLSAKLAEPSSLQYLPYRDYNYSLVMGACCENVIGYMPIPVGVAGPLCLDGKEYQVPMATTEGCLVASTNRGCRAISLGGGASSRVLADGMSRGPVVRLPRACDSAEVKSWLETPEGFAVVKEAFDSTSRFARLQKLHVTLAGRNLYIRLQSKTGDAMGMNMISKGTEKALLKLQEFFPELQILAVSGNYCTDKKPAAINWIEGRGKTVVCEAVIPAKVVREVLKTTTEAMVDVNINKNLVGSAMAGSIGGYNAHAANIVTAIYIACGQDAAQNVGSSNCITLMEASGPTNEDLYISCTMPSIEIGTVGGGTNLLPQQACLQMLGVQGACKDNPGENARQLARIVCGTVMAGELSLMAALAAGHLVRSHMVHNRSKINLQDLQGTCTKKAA

[2] = test system: cholesterol biosynthesis in HEP G2 cells; experiment: inhibition of cholesterol biosynthesis in HEP G2 cell cultures by incorporation of 14C-precursor (14C-acetate) in cholesterol; type: cell-based; conditions: Homo sapiens, HepG2, 1 hour preincubation, 3 hours with 14C-acetate
Protocol: In addition, the inhibition of cholesterol biosynthesis in cell cultures was tested with selected compounds by the incorporation of ^14 C-precursor in cholesterol.
Monolayers of HEP G2 cells in Lipoprotein-free nutrient medium were incubated with various concentrations of the test substances for 1 hour. After addition of the ^14 C-labeled precursor sodium ^14 C-acetate, the incubation was continued for 3 hours. Then ^3 H-cholesterol was added as internal standard, and some of the cells were hydrolyzed with alkali. The lipids were extracted from the hydrolyzed cells using chloroform/methanol. Carrier cholesterol was added to this lipid mixture which was then subjected to preparative thin-layer chromatography, the cholesterol band was visualized with iodine vapor and then isolated, and the amount of ^14 C-cholesterol formed from the ^14 C-precursor was determined by scintigraphy. Cellular protein was determined in an aliquot of the cells, so that it is possible to calculate the amount of ^14 C-cholesterol formed from the ^14 C-precursor per mg of cellular protein in unit time. The solvent control is used for comparison with the inhibitory effect of an added test product, so that the inhibition of cholesterol biosynthesis at a particular molar concentration of the test product in the medium can be stated. The absence of cell damage due to the action of the products was confirmed in an aliquot of the cell culture by the morphology (light microscope). The IC50 values of the test products are stated in mol/l (in Table II), and their relative potencies are compared with mevinolin sodium salt and mevinolin lactone (comparison of the IC50 values).

HMG-CoA reductase [3] = conditions: Endo et al. 1976; Brown et al. 1976; cited from earlier work
total serum cholesterol = experiment: cholesterol-lowering efficacy in normolipidemic male New Zealand rabbits; type: in vivo, rabbit
Protocol: (§1) The cholesterol-lowering efficacy was investigated in the following test on rabbits Normolipidemic male New Zealand rabbits (weight 3-3.5 kg, 4-6 animals per test group) received the test compounds suspended in a 1% strength aqueous carboxymethylcellulose solution (®Tylose) by gavage each day in the morning; the control group received only Tylose solution. Venous blood was taken every 3 to 4 days 20 hours after the oral administration of the solutions. The total cholesterol content in these samples was determined enzymatically using the Boehringer Mannheim assay kit (CHOD-PAP-high performance method). The serum cholesterol level in the group treated with test compounds was compared with that in the control group. The treatment period was followed by a period in which the test compounds were no longer administered.

liver enzyme levels = liver enzyme levels in the rabbit test; type: in vivo; conditions: 10 mg/kg/day by gavage; rabbits
Protocol: as §1
The serum cholesterol levels returned to their initial value within 3 days after discontinuation of the product (after 10 days).

Row | SMILES | IC50 (HMG-CoA reductase [1]) [nM] | IC50 [2] [nM] | other results
1 | CC(C)c1nc(-c2ccccc2)nc(-c2ccc(F)cc2)c1/C=C/[C@@H](O)[C@H](F)[C@@H](O)CC(=O)O | 36 |  | 
2 | Cc1cc(C)c(/C=C/[C@@H](O)[C@H](F)[C@@H](O)CC(=O)O)c(-c2ccc(F)cc2)c1 | 98 |  | 
3 | O=C1C[C@H](O)[C@@H](F)[C@@H](CSc2c(Cl)cc(Cl)cc2C(c2ccc(F)cc2)c2ccc(F)cc2)O1 [Example 12, 6-(2,4-Dichloro-6-(bisparafluorophenylmethyl)phenylthio)-3(R),5(S)-dihydroxy-4(R)-fluorohexanoic acid lactone] | 2000 | 5500 | 
4 | CC(C)c1nc(-c2ccccc2)nc(-c2ccc(F)cc2)c1/C=C/[C@H]1OC(=O)C[C@H](O)[C@H]1F [Example 38, 3(S),5(R)-dihydroxy-4(R)-fluoro-7-[6-parafluorophenyl-4-isopropyl-2-phenyl-1,3-diazin-5-yl]hept-6E-enoic acid lactone] |  | 250 | 
5 | CC[C@H](C)C(=O)O[C@H]1CCC=C2C=C[C@H](C)[C@H](CC[C@@H]3C[C@@H](O)CC(=O)O3)[C@H]21 [compactin] |  |  | inhibition of HMG-CoA reductase (in words) (HMG-CoA reductase [3]): potent competitive inhibitor of HMG-CoA reductase
6 | CC(C)c1nc(-c2ccccc2)cc(-c2ccc(F)cc2)c1/C=C/[C@H]1OC(=O)C[C@H](O)[C@H]1F [Example 34, 3(S),5(R)-Dihydorxy-4(R)-fluoro-7-(2-isopropyl-4-parafluorophenyl-6-phenyl-3-pyridyl)hept-6E-enoic acid lactone] |  | 110 | time within which the 40% lowering of total cholesterol was reached (total serum cholesterol; 10 mg/kg/day by gavage): ≤ 3 days; lowering of total cholesterol (total serum cholesterol; 10 mg/kg/day by gavage in 1% carboxymethylcellulose, within 3 days, vs control group): 40%; course of total cholesterol lowering during administration (total serum cholesterol; 10 mg/kg/day by gavage, 10 days): remained constant throughout the administration; time for serum cholesterol levels to return to initial value after discontinuation (total serum cholesterol; 10 mg/kg/day by gavage, discontinuation after 10 days): ≤ 3 days; changes in the liver enzyme levels (liver enzyme levels): without eliciting abnormal or pathological changes in the liver enzyme levels

More lines, in order of falling IC50 (HMG-CoA reductase [1]), values ahead:

Row | IC50 (HMG-CoA reductase [1]) [nM] | SMILES | IC50 [2] [nM] | other results
7 | 32 | CCCCc1cc(Cl)cc(Cl)c1/C=C/[C@H]1OC(=O)C[C@H](O)[C@H]1F [Example 18, 7-(2-n-Butyl-4,6-dichlorophenyl)-3(S),5(R)-dihydroxy-4(R)-fluoro-E-hept-6-enoic acid lactone] | 320 | 
8 | 20 | CC(C)c1nc(-c2ccccc2)cc(-c2ccc(F)cc2)c1CC[C@@H](O)[C@@H](F)[C@@H](O)CC(=O)O |  | 
9 | 8.5 | CC(C)c1nc(-c2ccccc2)cc(-c2ccc(F)cc2)c1/C=C/[C@@H](O)[C@H](F)[C@@H](O)CC(=O)O |  | 
10 | 6.3 | CC(C)c1cc(-c2ccccc2)cc(-c2ccc(F)cc2)c1/C=C/[C@@H](O)[C@H](F)[C@@H](O)CC(=O)O |  | 
